“Also recorded” adds a separate entry of the source.
Tests used:
H3K79me2 = assay: ELISA of H3K79me2 in OCI AML3 xenograft tumors; format: in vivo, nude rat
Experimental: In vivo studies were conducted. Human acute myeloid leukemia cells OCI-AML3 were implanted subcutaneously into the right flank of female athymic nude rats (Hsd:RH-Foxn1rnu, Harlan Laboratories, Inc.). EPZ-5676 was delivered by continuous IV infusion via a catheter surgically implanted in the femoral vein of each rat. Animals were separated into either an efficacy or PK/PD cohort. Both cohorts were dosed by continuous IV infusion with 35 or 70 mg/kg/day. A control group received continuous IV infusion of the vehicle, 5% hydroxypropyl-β-cyclodextrin (HPBCD) in saline. Efficacy was determined after 21 days of drug treatment followed by a 7 day drug holiday. Animals assessed for PK/PD were dosed for 14 days and euthanized following the completion of infusion. All rats were weighed and tumors calipered twice weekly until the end of study. At the completion of the study animals were euthanized by terminal cardiac puncture under isoflurane anesthesia. Euthanized rats were sampled for tumor tissue. […]
For isolation of histones from bone marrow, cells were lysed in 250 μL nuclear extraction buffer (10 mM Tris-HCl, 10 mM MgCl2, 25 mM KCl, 1% Triton X-100, 8.6% Sucrose, plus a Roche protease inhibitor tablet 1836145). […] Histones were quantified using the BCA protein assay (Pierce, 23225). […]

[1] = system: OCI AML3 subcutaneous tumors; assay: Nude rat OCI-AML3 xenograft study, tumor volume; format: in vivo; conditions: 21 days
Experimental: (§1) In vivo studies were conducted. Human acute myeloid leukemia cells OCI-AML3 were implanted subcutaneously into the right flank of female athymic nude rats (Hsd:RH-Foxn1rnu, Harlan Laboratories, Inc.). EPZ-5676 was delivered by continuous IV infusion via a catheter surgically implanted in the femoral vein of each rat. Animals were separated into either an efficacy or PK/PD cohort. Both cohorts were dosed by continuous IV infusion with 35 or 70 mg/kg/day. A control group received continuous IV infusion of the vehicle, 5% hydroxypropyl-β-cyclodextrin (HPBCD) in saline. Efficacy was determined after 21 days of drug treatment followed by a 7 day drug holiday. Animals assessed for PK/PD were dosed for 14 days and euthanized following the completion of infusion. All rats were weighed and tumors calipered twice weekly until the end of study. At the completion of the study animals were euthanized by terminal cardiac puncture under isoflurane anesthesia. Euthanized rats were sampled for tumor tissue. Tumors were collected in an RNase-free environment, bisected, snap frozen in liquid nitrogen, pulverized and finally stored at (−80° C.).

MEIS1 and HOXB3 = assay: qRT-PCR of MEIS1 and HOXB3 in OCI AML3 xenograft tumors; format: in vivo, nude rat; conditions: 21 days
Experimental: as §1
For the isolation of RNA, 10 mg of tumor powder was lysed in 600 μL RLT Lysis Buffer (Qiagen) and homogenized with a Qiashredder column (Qiagen, 79656) following the manufacturer's protocol. […] MEIS1 and HOXB3 mRNA levels were assessed and normalized to GAPDH by qRT-PCR.

OCI AML2 cells [2] = assay: Cell proliferation and viability assay (trypan blue exclusion); format: cell-based, human; conditions: OCI AML2; escalating doses, 10-14 days
Experimental: (§2) Patient AML cell lines were plated in media and treated with the DOT1L inhibitors SYC-522, EPZ004777 or DMSO control was added at the indicated concentrations. Cells counted, washed and re-plated in fresh compound at equal densities every 3-4 days for 12 days. Cell growth and viability were followed by serial cell counts and trypan blue exclusion staining.
(§3) Exponentially growing cells were plated, in triplicate, in 24-well plates at a density of 2×10^5/mL in a final volume of 1 mL. For dose dependent assays, cells were incubated in increasing concentrations of SYC522 up to 10 μM or EPZ004777 up to 24 μM or DMSO control. For time-dependent assays, cells were incubated in 3 μM EPZ004777 or DMSO control. Every 2-3 days media and compound was replaced and cells were split back to a density of 2×10^5/mL. At each re-plating viable cells number was determined by trypan blue exclusion. Total cell number is expressed as split-adjusted viable cells per mL.

OCI AML3 cells [3] = assay: as above; format: cell-based, human; conditions: OCI AML3; escalating doses, 10-14 days
Experimental: as §2, §3

MV4-11 cells = assay: as above; format: cell-based, human; conditions: MV4-11 (MLL-rearranged); dose-dependent, FIG. 4
Experimental: as §2, §3

[4] = system: H3K79me2 in OCI AML2 cells; assay: Immunoblot analysis of cellular H3K79 methylation; format: cell-based, human
DNMT3A mutant cells = assay: HOX gene expression in DNMT3A mutant cells (FIG. 10); format: cell-based, human; conditions: FIG. 10, day 6 and day 10 of treatment
Experimental: RNA was extracted from OCI AML2 and OCI AML3 cells treated with 3 μM EPZ004777 or DMSO control using RNeasy RNA isolation kit (Qiagen) per manufacturer's protocol. RNA was quantified using Nanodrop instrument and 300-1000 ng (equal quantities for EPZ004777 treated and DMSO controls) of RNA were reverse transcribed using the SuperScript® III First-Strand Synthesis System (Invitrogen). Reverse transcription quantitative PCR was then performed in triplicate using predesigned TaqMan primer and probe sets for HOXA9 (Hs00365956_m1), MEIS1 (Hs01017441_m1), HOXB8 (Hs00256885_m1), HOXB3 (Hs01587922_m1), and GAPDH (Hs02758991_ml) (FAM-MGB; Applied Biosystems) for 30 cycles using an AbiPrism 7900HT (Applied Biosystems). Target gene numbers were normalized to the ribosomal RNA 18s (VIC-MGB; Applied Biosystems) and fold-change determined by the 2^−ΔΔCT equation.

[5] = system: H3K79me2 in OCI AML3 cells; assay: Immunoblot analysis of cellular H3K79 methylation; format: cell-based, human
OCI AML2 cells [6] = assay: Annexin V binding (AVB) flow cytometry apoptosis assay; format: cell-based, human; conditions: increasing concentrations
Experimental: (§4) For the Annexin V apoptosis assay, 1×10^6 SYC-522-, EPZ004777- or DMSO-treated cells were washed in PBS, resuspended in Ca/HEPES buffer (10 mM HEPES, pH7.4; 140 mM NaCl; 2.5 mM CaCl2) and incubated with Annexin V-APC (BD Pharmingen, San Jose, Calif.) for 30 min then analyzed by flow cytometry.
(§5) Cells were harvested at each re-plating of the cell proliferation assay described above then split for simultaneous analysis of apoptosis, cell cycle, and differentiation. Apoptosis was determined by Annexin V binding (AVB) flow cytometry assay. The harvested cells were re-suspended in 1×AVB buffer, stained with APC-conjugated Annexin V (BD), then analyzed by flow cytometry. For cell cycle analysis, cells were pelleted, washed in PBS with 0.5% bovine serum albumin, then fixed in 70% ice-cold methanol. The fixed cells were then incubated in PBS with 100 μg/mL RNAse (Invitrogen) for 15 minutes in a 37° C. water bath. Propidium iodide (PI) in PBS at a final concentration of 25 μg/mL was then added and the cells were analyzed by flow cytometry. For differentiation, cells were pelleted, and stained with APC-conjugated CD14 then washed and re-suspended in media containing PI to exclude dead cells. All analyses were performed using an LSR II flow cytometer (BD biosciences) and the data were analyzed using FlowJo (TreeStar, V8.8.7).

OCI AML3 cells [7] = assay: as above; format: cell-based, human; conditions: increasing concentrations
Experimental: as §4, §5

MV411 cells = assay: as above; format: cell-based, human; conditions: MV4-11; dose-dependent, FIG. 4
Experimental: as §4, §5

OCI AML2 cells [8] = assay: Cell differentiation analysis, CD14 flow cytometry; format: cell-based, human; conditions: dose dependent
Experimental: (§6) Cell differentiation analysis was performed by staining with fluorescently labeled marker for cell differentiation, CD14 followed by flow cytometry. Propidium iodide was added prior to flow cytometry analysis to exclude dead cells.
as §5

OCI AML3 cells [9] = assay: Cell differentiation analysis, CD14 flow cytometry; format: cell-based, human; conditions: dose dependent
Experimental: as §6, §5

[10] = 35 mg/kg/day continuous IV infusion
[11] = 70 mg/kg/day continuous IV infusion

Compound	H3K79me2 level (H3K79me2; [10])	H3K79me2 level (H3K79me2; [11])	tumor growth (tumor volume) [1, 10]	tumor growth (tumor volume) [1, 11]	expression of oncogenic genes including MEIS1 and HOXB3 in tumors (MEIS1 and HOXB3; [10])	expression of oncogenic genes including MEIS1 and HOXB3 in tumors (MEIS1 and HOXB3; [11])	cell growth / proliferation (OCI AML2 cells [2])	cell growth / proliferation (OCI AML3 cells [3])	cell proliferation (MV4-11 cells)	cellular H3K79 methylation [4]	oncogenic HOX gene expression (DNMT3A mutant cells)	cellular H3K79 methylation [5]	induction of apoptosis (Annexin V binding) (OCI AML2 cells [6])	induction of apoptosis (Annexin V binding) (OCI AML3 cells [7])	induction of apoptosis (MV411 cells)	terminal differentiation (CD14 staining) (OCI AML2 cells [8])	terminal differentiation (CD14 staining) (OCI AML3 cells [9])
CC(C)N(C[C@H]1O[C@@H](n2cnc3c(N)ncnc32)[C@H](O)[C@@H]1O)[C@H]1C[C@@H](CCc2nc3cc(C(C)(C)C)ccc3[nH]2)C1 [EPZ-5676]	significant reduction of H3K79me2	significant reduction of H3K79me2	inhibited in a dose dependent fashion	inhibited in a dose dependent fashion reaching statistical significance	repression of oncogenic genes	repression of oncogenic genes	–	–	–	–	–	–	–	–	–	–	–
CC(C)N(CCCNC(=O)Nc1ccc(C(C)(C)C)cc1)CC1OC(n2cnc3c(N)ncnc32)C(O)C1O (centres unmarked) [SYC-522]	–	–	–	–	–	–	decreased proliferation; also recorded: inhibited growth in a dose-dependent fashion	decreased proliferation; also recorded: inhibited growth in a dose-dependent fashion	reduction of cell proliferation	inhibit H3K79 methylation in a time-dependent manner; also recorded: inhibited in a dose- and time-dependent fashion	repressed in a time-dependent fashion	inhibit H3K79 methylation in a time-dependent manner; also recorded: inhibited in a dose- and time-dependent fashion	induction of apoptosis	induction of apoptosis	induction of apoptosis	terminal differentiation	terminal differentiation

Source: patent US20170335402A1, “DOT1L INHIBITORS AND USES THEREOF” (Baylor College of Medicine, priority 2014, published 2017)
